Tests used:
Type in all cases: cell-based, mouse
3T3-L1 adipocytes [1] = experiment: Cell proliferation / DNA synthesis in cultured adipocytes (CyQUANT)
Description: (§1) 3T3-L1 preadipocytes were incubated at a density of 8000 cells/cm^2 (10 cm^2 dish) and grown in Dulbecco's modified Eagle's medium (DMEM) containing 10% FBS and antibiotics (adipocyte medium) at 37° C. in 5% CO2 in air. Confluent preadipocytes were induced to differentiate with a standard differentiation medium consisting of DMEM-F10 (1:1, vol/vol) medium supplemented with 1% FBS, 1 μM dexamethasone, IBMX (0.5 mM) and antibiotics (1% Penicillin-Streptomycin). Preadipocytes were maintained in this differentiation medium for 3 days and subsequently cultured in adipocyte medium. Cultures were re-fed every 2-3 days to allow 90% of cells to reach full differentiation before conducting chemical treatment. Chemicals were freshly diluted in adipocyte medium before treatment. Cells were washed with fresh adipocyte medium, re-fed with medium containing the different treatments, and incubated at 37° C. in 5% CO2 in air before analysis. Cell viability was measured via trypan blue exclusion. Cells were plated in DMEM with different treatment in duplicate in 96-well plates. After 48 h, a CyQUANT Cell Proliferation Kit (Molecular Probes, Eugene, Oreg.) was used following the manufacturer's protocol. a microplate fluorometer (Packard Instrument Company, Inc., Downers Grove, Ill.) was used to measure CyQUANT fluorescence. Cell viability was determined by Trypan blue exclusion examination.

3T3-L1 adipocytes [2] = experiment: Intracellular ROS generation in cultured adipocytes (H2-DCFDA); settings: α-tocopherol 1 μmol/L added, all groups
Description: as §1, with “exclusion. […]” for “exclusion.”, “loaded” for “plated in DMEM”, “H2-DCFDA (2 μmol/L) 30 minute before the end of the incubation period (48 h).” for “different treatment in duplicate in 96-well plates.”, “washing twice with PBS, cells were scraped and disrupted by sonication on ice (20 s). Fluorescence (emission 543 nm or 527 nm) and DNA content were then measured as described previously. The intensity of fluorescence” for “48 h, a CyQUANT Cell Proliferation Kit (Molecular Probes, Eugene, Oreg.)”, “expressed as arbitrary units per ng DNA.” for “used following the manufacturer's protocol. a microplate fluorometer (Packard Instrument Company, Inc., Downers Grove, Ill.) was used to measure CyQUANT fluorescence. Cell viability was determined by Trypan blue exclusion examination.”

3T3-L1 adipocytes [3] = experiment: Intracellular Ca2+ in cultured adipocytes (fura-2)
Description: 3T3-L1 preadipocytes were incubated at a density of 8000 cells/cm^2 (10 cm^2 dish) and grown in Dulbecco's modified Eagle's medium (DMEM) containing 10% FBS and antibiotics (adipocyte medium) at 37° C. in 5% CO2 in air. Confluent preadipocytes were induced to differentiate with a standard differentiation medium consisting of DMEM-F10 (1:1, vol/vol) medium supplemented with 1% FBS, 1 μM dexamethasone, IBMX (0.5 mM) and antibiotics (1% Penicillin-Streptomycin). Preadipocytes were maintained in this differentiation medium for 3 days and subsequently cultured in adipocyte medium. Cultures were re-fed every 2-3 days to allow 90% of cells to reach full differentiation before conducting chemical treatment. Chemicals were freshly diluted in adipocyte medium before treatment. Cells were washed with fresh adipocyte medium, re-fed with medium containing the different treatments, and incubated at 37° C. in 5% CO2 in air before analysis. Cell viability was measured via trypan blue exclusion. [Ca^2+]i in adipocytes was measured using a fura-2 dual-wavelength fluorescence imaging system. Cells were plated in 35-mm dishes […]). […] Cells were loaded with fura-2 acetoxymethyl ester (fura-2 AM) (10 μmol/L) in the same buffer for 2 h at 37° C. in a dark incubator with 5% CO2. To remove extracellular dye, cells were rinsed with HBSS three times and then post-incubated at room temperature for an additional 1 h for complete hydrolysis of cytoplasmic fura-2 AM. The dishes with dye-loaded cells were mounted on the stage of Nikon TMS-F fluorescence inverted microscope with a Cohu model 4915 charge-coupled device (CCD) camera. Fluorescent images were captured alternatively at excitation wavelengths of 340 and 380 nm with an emission wavelength of 520 nm. After establishment of a stable baseline, the responses to 1α, 25-(OH)2-D3 was determined. [Ca^2+]i was calculated using a ratio equation as described previously. Each analysis evaluated responses of 5 representative whole cells. Images were analyzed with […]2 version 4.62 imaging software (Intracellular Imaging, Cincinnati, Ohio). […]

adiponectin = experiment: Adiponectin expression in 3T3-L1 adipocytes; settings: 48 h
Description: (§2) 3T3-L1 pre-adipocytes were incubated at a density of 8000 cells/cm^2 (10 cm^2 dish) and grown in Dulbecco's modified Eagle's medium (DMEM) containing 10% FBS and antibiotics (adipocyte medium) at 37° C. in 5% CO2 in air. Confluent pre-adipocytes were induced to differentiate with a standard differentiation medium consisting of DMEM-F10 (1:1, vol/vol) medium supplemented with 1% fetal bovine serum (FBS), 1 μM dexamethasone, isobutylmethylxanthine (IBMX) (0.5 mM) and antibiotics (1% Penicillin-Streptomycin). Pre-adipocytes were maintained in this differentiation medium for 3 days and subsequently cultured in adipocyte medium. Cultures were re-fed every 2-3 days to allow 90% cells to reach fully differentiation before conducting chemical treatment. […] Cell viability was measured via trypan blue exclusion. Adipocyte and muscle 18s, TNFα, IL-6, IL-8, IL-15 and adiponectin were quantitatively measured using a smart cycler real-time PCR system (Cepheid, Sunnyvale, Calif.) with a TaqMan 1000 Core Reagent Kit (Applied Biosystems, Branchburg, N.J.). […] Reactions of quantitative RT-PCR for standards and unknown samples were also performed according to the instructions of Smart Cycler System (Cepheid, Sunnyvale, Calif.) and TaqMan Real Time PCR Core Kit (Applied Biosystems, Branchburg, N.J.). The mRNA quantitation for each sample was further normalized using the corresponding 18s quantitation.

IL-15 = IL-15 expression in 3T3-L1 adipocytes; settings: 1 μmol/L α±tocopherol added to 100 nmol/L H2O2, 48 h; P=0.043
Description: as §2

For `Cc1c(C)c2c(c(C)c1O)CC[C@@](C)(CCC[C@H](C)CCC[C@H](C)CCCC(C)C)O2` [α-tocopherol], which “effect on DNA synthesis” value (3T3-L1 adipocytes [1]; α-tocopherol 1 μmol/L added, all groups) is on record?
The value was “inhibited”.

And the “effect on H2O2 induced DNA synthesis” value (3T3-L1 adipocytes [1]; α-tocopherol 1 μmol/L or nifedipine 10 μmol/L plus H2O2, 48 hours)?
The value was “completely blocked”.

What about the “effect on ROS production” value (3T3-L1 adipocytes [2]) of the same compound?
The value was “inhibited”.

What about the “effect on H2O2 induced increase in [Ca2+]i” value (3T3-L1 adipocytes [3]; α-tocopherol 1 μmol/L plus H2O2, 4 hours) of the same compound?
The value was “reversed”.

What about the “effect on glucose induced increase in [Ca2+]i” value (3T3-L1 adipocytes [3]; α-tocopherol 1 μmol/L plus glucose 30 mmol/L, 4 hours) of the same compound?
Its value is “partially blocked”.

And the “effect on adiponectin production” value (adiponectin)?
The value was “increased”.

And the “increase in IL-15 as compared to H2O2-treated cells” value (IL-15)?
The value was 2.2 fold.

Source: patent US20110038948A1, “Methods of Reducing the Production of Reactive Oxygen Species and Methods of Screening or Identifying Compounds and Compositions that Reduce the Production of Reactive Oxygen Species” (UNIVERSITY OF TENNESSEE RESEARCH FOUNDATION, priority 2005, published 2011)
